# ChEMBL document CHEMBL4342466, “Novel, Self-Assembling Dimeric Inhibitors of Human β Tryptase” (J Med Chem, 2020)
# Activity calls are given as the source filed them. The calls are words filed in the database; no cut-off is given here.
# Columns and labels:
# [1] = Inhibition of human recombinant beta-tryptase pre-incubated for 3 hrs before N-tert-butoxycarbonyl-Gln-Ala-Arg-AMC substrate addition and measured every 30 secs for 15 mins by spectrometry
# [2] = Time for Clast in C57BL/6 mouse at 50 mg/kg, po measured over 0.25 to 24 hrs by LC-MS/MS analysis; assay type: ADME, organism-based; details: in vivo
# [3] = Tmax in C57BL/6 mouse at 50 mg/kg, po measured over 0.25 to 24 hrs by LC-MS/MS analysis; assay type: ADME, organism-based; details: in vivo
# [4] = Solubility of the compound; assay type: physicochemical
# [5] = Time for Clast in C57BL/6 mouse at 5 mg/kg, iv measured over 0.25 to 24 hrs by LC-MS/MS analysis; assay type: ADME, organism-based; details: in vivo
# [6] = Half life in C57BL/6 mouse at 5 mg/kg, iv measured over 0.25 to 24 hrs by LC-MS/MS analysis; assay type: ADME, organism-based; details: in vivo
# Tryptase beta-2 = target: T1, Tryptase beta-2 (Mus musculus, UniProt P21845); assay: Inhibition of mouse MCP6 pre-incubated for 3 hrs before N-tert-butoxycarbonyl-Gln-Ala-Arg-AMC substrate addition and measured every 30 secs for 15 mins by spectrometry
# T1 sequence (P21845 whole entry): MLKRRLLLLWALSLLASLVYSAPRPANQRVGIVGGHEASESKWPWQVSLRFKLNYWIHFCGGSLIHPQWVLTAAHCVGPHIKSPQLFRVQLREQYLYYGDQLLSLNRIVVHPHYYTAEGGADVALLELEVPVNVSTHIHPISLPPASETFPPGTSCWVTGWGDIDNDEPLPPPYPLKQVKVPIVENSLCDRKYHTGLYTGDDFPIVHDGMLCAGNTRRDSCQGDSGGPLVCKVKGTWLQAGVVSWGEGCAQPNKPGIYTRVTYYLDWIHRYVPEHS
# [7] = Stability in human liver microsomes assessed as parent compound remaining at 15 uM in presence of NADPH incubated for 60 mins; assay type: ADME, Microsome; details: for remaining at 1 h, 15 µM: liver microsomes, read-out: Stability; for Stability: microsomes, 1 h, 15 µM
# [8] = Stability in human liver microsomes assessed as parent compound remaining at 15 uM in presence of UDPGA incubated for 60 mins; assay type: ADME, Microsome; details: for remaining at 1 h, 15 µM: liver microsomes, read-out: Stability; for Stability: microsomes, 1 h, 15 µM
# [9] = Stability in human liver microsomes assessed as parent compound remaining at 15 uM in absence of NADPH incubated for 60 mins; assay type: ADME, Microsome; details: for remaining at 1 h, 15 µM: liver microsomes, read-out: Stability; for Stability: microsomes, 1 h, 15 µM
# [10] = Clearance in C57BL/6 mouse at 5 mg/kg, iv measured over 0.25 to 24 hrs by LC-MS/MS analysis; assay type: ADME, organism-based; details: in vivo
# Mus musculus = assay: Inhibition of tryptase activity in tumors of mouse xenografted with human HMC1 cells at 10 mg/kg, iv dosed at time 0 and again 24 hrs later and measured at 24 to 48 hrs after second dose; assay type: functional, organism-based
# Homo sapiens = species on record: Homo sapiens; assay: Inhibition of human recombinant beta-tryptase assessed as remaining enzyme activity at 10 uM pre-incubated for 3 hrs before N-tert-butoxycarbonyl-Gln-Ala-Arg-AMC substrate addition and measured after 8 hrs by spectrometry relative to control
# HMC1 [11] = assay: Inhibition of beta-tryptase in human HMC1 cells assessed as effect on tryptase activity by measured cell lysis; assay type: cell-based
# HMC1 [12] = assay: Inhibition of beta-tryptase in human HMC1 cells assessed as effect on A23187-induced degranulation; assay type: cell-based
# [13] = Lipophilicity, logD of the compound at pH 7.4; assay type: physicochemical; details: buffer
# [14] = Drug concentration in tumor of mouse xenografted with human HMC1 cells at 10 mg/kg, iv dosed at time 0 and again 24 hrs later and measured at 24 hrs after second dose by LC-MS/MS analysis; assay type: ADME, organism-based, Neoplasm; details: read-out: Drug uptake
# [15] = Plasma concentration in mouse xenografted with human HMC1 cells at 10 mg/kg, iv dosed at time 0 and again 24 hrs later and measured at 24 hrs after second dose by LC-MS/MS analysis; assay type: ADME, organism-based
# [16] = Plasma concentration in mouse xenografted with human HMC1 cells at 10 mg/kg, iv dosed at time 0 and again 24 hrs later and measured at 8 hrs after second dose by LC-MS/MS analysis; assay type: ADME, organism-based
# [17] = Drug concentration in tumor of mouse xenografted with human HMC1 cells at 10 mg/kg, iv dosed at time 0 and again 24 hrs later and measured at 2 hrs after second dose by LC-MS/MS analysis; assay type: ADME, organism-based, Neoplasm; details: read-out: Drug uptake
# [18] = Drug concentration in tumor of mouse xenografted with human HMC1 cells at 10 mg/kg, iv dosed at time 0 and again 24 hrs later and measured at 0 hrs after second dose by LC-MS/MS analysis; assay type: ADME, organism-based, Neoplasm; details: read-out: Drug uptake
# [19] = Plasma concentration in mouse xenografted with human HMC1 cells at 10 mg/kg, iv dosed at time 0 and again 24 hrs later and measured at 2 hrs after second dose by LC-MS/MS analysis; assay type: ADME, organism-based
# [20] = Drug concentration in tumor of mouse xenografted with human HMC1 cells at 10 mg/kg, iv dosed at time 0 and again 24 hrs later and measured at 8 hrs after second dose by LC-MS/MS analysis; assay type: ADME, organism-based, Neoplasm; details: read-out: Drug uptake
"remaining at 1 h, 15 µM [7]","remaining at 1 h, 15 µM [8]",Compound,IC50 [1],IC50 (Tryptase beta-2),other results
52%,53%,NCc1cccc(C2CCN(C(=O)c3ccc(O)c(O)c3)CC2)c1,0.452 µM,2.31 µM,"half-life [6]: 45.6 min; remaining at 1 h, 15 µM [9]: 43%; clearance [10]: 519 mL/min/kg"
74%,72%,COc1cc(C(=O)N2CCC3(CC2)COc2ccc(CN)cc23)cc(O)c1O,0.953 µM,11.8 µM,Stability [9]: Stable
,87%,NCc1ccc2c(c1)C1(CCN(C(=O)c3ccc(O)c(O)c3)CC1)CO2,0.635 µM,2.54 µM,"Stability [7]: Stable; remaining at 1 h, 15 µM [9]: 94%"
29%,18%,NCc1cccc(C2CCN(C(=O)c3cc(O)c(O)c(Cl)c3)CC2)c1,0.339 µM,17.5 µM,"remaining at 1 h, 15 µM [9]: 28%"
96%,94%,NCc1ccc2c(c1)C1(CCN(C(=O)c3cccc(-c4cccc(B(O)O)c4)c3)CC1)CO2 [listing 2 of 2 here],1.22 µM,1.14 µM,"Time [2]: 8 h; Tmax [3]: 30 min; solubility [4]: Soluble; Time [5]: 24 h; logD [13]: 1.22; half-life [6]: > 360 min; remaining at 1 h, 15 µM [9]: 85%"
68%,81%,NCc1cccc(C2CCN(C(=O)c3ccc(CO)c(O)c3)CC2)c1,0.0658 µM,1.55 µM,"remaining at 1 h, 15 µM [9]: 63%"
82%,82%,NCc1ccc2c(c1)C1(CCN(C(=O)c3cccc(-c4cccc5c4COB5O)c3)CC1)CO2,1.5 µM,2.89 µM,inhibition (Mus musculus): inactive; logD [13]: 1.69
87%,67%,CONC(=O)c1cc(C(=O)N2CCC3(CC2)COc2ccc(CN)cc23)ccc1O,0.57 µM,2.16 µM,Stability [9]: Stable

# The next lines start with the compound.
Compound,"remaining at 1 h, 15 µM [7]","remaining at 1 h, 15 µM [8]",IC50 [1],IC50 (Tryptase beta-2),other results
NCc1cccc(C2CCN(C(=O)/C=C/c3ccc4c(c3)OB(c3ccc5cccc(C(=O)N6CCC(c7cccc(CN)c7)CC6)c5c3)O4)CC2)c1,,,0.411 µM,,
NCc1ccc2c(c1)C1(CCN(C(=O)c3cc(O)c(O)c(Cl)c3)CC1)CO2 [listing 1 of 2 here],,,0.238 µM,11.7 µM,Time [2]: 24 h; Tmax [3]: 15 min; solubility [4]: Soluble; Time [5]: 8 h; half-life [6]: > 360 min
COc1cc(C(=O)N2CCC(c3cccc(CN)c3)CC2)cc(O)c1O,,,0.925 µM,7.43 µM,
NCc1ccc2c(c1)C1(CCN(C(=O)c3ccc(CO)c(O)c3)CC1)CO2,,,0.656 µM,4.69 µM,Stability [7]: Stable; Stability [8]: Stable; Stability [9]: Stable
Cc1cc(C(=O)N2CCC3(CC2)COc2ccc(CN)cc23)cc(-c2cccc(B(O)O)c2)c1C,,,1.36 µM,,
NCc1ccc2c(c1)C1(CCN(C(=O)c3cccc(-c4cccc(B(O)O)c4)c3)CC1)CO2 [listing 1 of 2 here],,,,,inhibition (Mus musculus): Active; inhibition (Homo sapiens): inactive; inhibition (HMC1 [11]): inactive; inhibition (HMC1 [12]): Active
NCc1ccc2c(c1)C1(CCN(C(=O)c3ccc(Cl)c(-c4cccc(B(O)O)c4)c3)CC1)CO2,,,1.1 µM,0.599 µM,
NCc1ccc2c(c1)C1(CCN(C(=O)c3cc(O)c(O)c(Cl)c3)CC1)CO2.O=C(O)C(F)(F)F,,,,,concentration at 24 h [14]: 8.64 nM; concentration at 24 h [15]: 0.02 nM; concentration at 8 h [16]: 1.28 nM; concentration at 2 h [17]: 314 nM; concentration at 0 h [18]: 17.6 nM; concentration at 2 h [19]: 311 nM; concentration at 8 h [20]: 58.6 nM
CSc1sc(C(=O)N2CCC(c3cccc(CN)c3)CC2)cc1-c1cccc2c1COB2O,,,0.0142 µM,,
CSc1sc(C(=O)N2CCC3(CC2)COc2ccc(CN)cc23)cc1-c1cccc2c1COB2O,,,0.018 µM,,Stability [7]: Stable; Stability [8]: Stable; Stability [9]: Stable
Cc1cc(C(=O)N2CCC(c3cccc(CN)c3)CC2)cc(-c2cccc(B(O)O)c2)c1C,,,1.25 µM,,
NCc1ccc2c(c1)C1(CCN(C(=O)c3cc(O)c(O)c(Cl)c3)CC1)CO2 [listing 2 of 2 here],,,,,inhibition (Mus musculus): Active; inhibition (Homo sapiens): inactive; inhibition (HMC1 [11]): inactive; inhibition (HMC1 [12]): Active
NCc1cccc(C2CCN(C(=O)c3cccc(-c4cccc(B(O)O)c4)c3)CC2)c1,2%,1%,0.843 µM,1.42 µM,"half-life [6]: 216 min; remaining at 1 h, 15 µM [9]: 1%; clearance [10]: 52.5 mL/min/kg"
CONC(=O)c1ccc(C(=O)N2CCC3(CC2)COc2ccc(CN)cc23)cc1O,,,0.0434 µM,,Stability [7]: Stable; Stability [8]: Stable; Stability [9]: Stable
CONC(=O)c1ccc(C(=O)N2CCC(c3cccc(CN)c3)CC2)cc1O,,,0.12 µM,,Stability [7]: Stable; Stability [8]: Stable; Stability [9]: Stable
CONC(=O)c1cc(C(=O)N2CCC(c3cccc(CN)c3)CC2)ccc1O,84%,68%,3.31 µM,0.455 µM,"remaining at 1 h, 15 µM [9]: 81%"
